Test results published in publication PMC12693167, “Design, Synthesis and Anticancer Activity of 6-Substituted-1-(3,4,5-trimethoxyphenyl)-1H-indole Against Tubulin Polymerisation” (Molecules, 2025).

Legend:
[1] = tested on: MDA-MB-231 cells; experiment: CCK-8 antiproliferative assay, MDA-MB-231; type: cell-based; settings: Homo sapiens, cell viability (CCK-8), 48 h
Method: (§1) To evaluate the anticancer potential of the synthesized compounds, a panel of six human and murine cancer cell lines representing different tissue origins was selected, including MCF-7 (human breast adenocarcinoma), MDA-MB-231 (human triple-negative breast cancer), A549 (human non-small cell lung cancer), HeLa (human cervical cancer), A375 (human melanoma), and B16-F10 (murine melanoma) (Table 2). […] DMSO was used as the vehicle control, and all experiments were performed in triplicate to ensure reproducibility.
(§2) Human breast cancer cells (MCF-7), human lung cancer cells (A549), human cervical cancer cells (HeLa), human triple-negative breast cancer cells (MDA-MB-231), and human malignant melanoma cells (A375) were cultured in DMEM. Mouse melanoma cells (B16F10) were maintained in RPMI-1640 medium. All media were supplemented with 10% fetal bovine serum and 1% penicillin-streptomycin (Life Technologies, Carlsbad, CA, USA) and maintained at 37 °C in a humidified atmosphere with 5% CO2.
(§3) The cytotoxicity of the test compounds was evaluated against MCF-7, A549, HeLa, MDA-MB-231, A375, and B16F10 using the CCK-8 assay. Cells were seeded into 96-well plates at a density of 5000 cells/well. After removing the medium, 100 μL of medium with 0.1% DMSO containing test compounds at different concentrations was added to each well and incubated at 37 °C for another 48 h. The CCK-8 solution was added and incubated for another 1 h, and then, the absorbance was detected with a microplate reader at a wavelength of 450 nm. The IC50 values were calculated by nonlinear regression analysis using GraphPad Prism 8.0.2. All the experiments were repeated at least three times.

[2] = tested on: A549 cells; experiment: CCK-8 antiproliferative assay, A549; type: cell-based; settings: Homo sapiens, cell viability (CCK-8), 48 h
Method: as §1, §2, §3

[3] = tested on: HeLa cells; experiment: CCK-8 antiproliferative assay, HeLa; type: cell-based; settings: Homo sapiens, cell viability (CCK-8), 48 h
Method: as §1, §2, §3

[4] = tested on: MCF-7 cells; experiment: CCK-8 antiproliferative assay, MCF-7; type: cell-based; settings: Homo sapiens, MCF7; cell viability (CCK-8), 48 h
Method: as §1, §2, §3

[5] = tested on: B16-F10 cells; experiment: CCK-8 antiproliferative assay, B16-F10; type: cell-based, murine; settings: Mus musculus, cell viability (CCK-8), 48 h
Method: as §1, §2, §3

[6] = tested on: A375 cells; experiment: CCK-8 antiproliferative assay, A375; type: cell-based; settings: Homo sapiens, A-375; cell viability (CCK-8), 48 h
Method: as §1, §2, §3

[7] = target: T1, purified porcine brain tubulin (Sus scrofa, UniProt P02554); experiment: Biolayer interferometry (BLI) binding to tubulin; settings: immobilized tubulin, 1:1 binding model, mean ± SD, triplicate
T1 construct: purified porcine brain tubulin; from tissue; host or cells: porcine brain
T1 sequence (P02554 whole entry): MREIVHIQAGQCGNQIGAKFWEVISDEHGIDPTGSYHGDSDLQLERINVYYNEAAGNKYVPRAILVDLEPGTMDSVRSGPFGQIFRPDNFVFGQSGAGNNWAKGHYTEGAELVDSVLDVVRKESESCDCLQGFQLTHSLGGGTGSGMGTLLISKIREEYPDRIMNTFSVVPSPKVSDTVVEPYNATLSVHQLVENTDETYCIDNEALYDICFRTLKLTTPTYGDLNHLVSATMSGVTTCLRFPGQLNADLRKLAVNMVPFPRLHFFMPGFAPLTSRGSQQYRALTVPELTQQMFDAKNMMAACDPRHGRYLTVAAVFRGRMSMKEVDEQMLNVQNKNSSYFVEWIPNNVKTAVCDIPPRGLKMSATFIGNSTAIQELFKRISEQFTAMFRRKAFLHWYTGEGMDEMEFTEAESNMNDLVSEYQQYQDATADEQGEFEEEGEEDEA
T1 sequence (P02550 whole entry partner): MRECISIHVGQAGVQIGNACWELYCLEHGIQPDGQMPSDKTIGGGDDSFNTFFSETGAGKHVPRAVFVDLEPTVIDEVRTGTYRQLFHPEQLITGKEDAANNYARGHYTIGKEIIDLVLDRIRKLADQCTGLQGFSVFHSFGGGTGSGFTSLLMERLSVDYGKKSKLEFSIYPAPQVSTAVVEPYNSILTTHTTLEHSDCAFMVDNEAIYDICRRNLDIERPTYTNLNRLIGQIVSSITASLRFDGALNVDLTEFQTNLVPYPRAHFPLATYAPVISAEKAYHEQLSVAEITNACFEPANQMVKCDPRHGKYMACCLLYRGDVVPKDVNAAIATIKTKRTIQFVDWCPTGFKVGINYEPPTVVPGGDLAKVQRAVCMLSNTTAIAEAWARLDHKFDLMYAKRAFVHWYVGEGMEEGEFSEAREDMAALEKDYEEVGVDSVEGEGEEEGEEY
Method: To detect the direct interaction between the synthesized compounds and tubulin, biolayer interferometry (BLI) experiments were performed using purified porcine brain tubulin immobilized on Super Streptavidin (SSA) biosensor [30]. […] Association and dissociation kinetics were monitored in real time, and equilibrium dissociation constants (KD) were determined by global fitting of the sensorgrams to a 1:1 binding model. All measurements were conducted in triplicate, and results are reported as mean ± SD.
BLI assays were performed on an Octet RED96 instrument (FortéBio, Pall Life Sciences, Menlo Park, CA, USA) at 25 °C in PBS buffer supplemented with 0.02% (v/v) Tween-20 as the running buffer. Biotinylated tubulin proteins (3 μg/mL) were immobilized onto Super Streptavidin (SSA) biosensors. Association and dissociation were monitored for 60 s each. […] Reference subtraction was performed using sensors incubated in running buffer without protein loading to correct for baseline drift. Data were analyzed using Octet Data Analysis software (version 9.0), and equilibrium dissociation constants (KD) were determined by fitting the curves to a 1:1 binding model. All measurements were performed in triplicate, and results are reported as mean ± SD.
BLI assays were performed on an Octet RED96 instrument (FortéBio, Pall Life Sciences) at 25 °C in PBS buffer supplemented with 0.02% (v/v) Tween-20 as the running buffer. Biotinylated tubulin proteins (3 μg/mL) were immobilized onto Super Streptavidin (SSA) biosensors. Association and dissociation were monitored for 60 s […]
Reference subtraction was performed using sensors incubated in running buffer without protein loading to correct for baseline drift. Data were analyzed using Octet Data Analysis software (version 9.0), and equilibrium dissociation constants (KD) were determined by fitting the curves to a 1:1 binding model. All measurements were performed in triplicate, and results are reported as mean ± SD.

[8] = target: T2, Porcine brain tubulin protein (Sus scrofa, UniProt P02554); experiment: In vitro tubulin polymerization assay; type: biochemical; settings: read-out: IC50, inhibitory effect on tubulin polymerization
T2 construct: Porcine brain tubulin protein was dissolved in EM buffer; from tissue; host or cells: porcine brain
T2 sequence (P02554 whole entry): as the sequence (P02554 whole entry) above
T2 sequence (P02550 whole entry partner): as the sequence (P02550 whole entry partner) above
Method: The ability of compound 3g to disrupt microtubule dynamics was assessed using an in vitro tubulin polymerization assay.
Porcine brain tubulin protein was dissolved in EM buffer containing 5% glycerol (80 mM PIPES, 2 mM GTP, 2 mM MgCl2, and 0.5 mM EGTA, pH 6.9). Compounds were diluted in EM buffer to final concentrations of 50, 25, 10, 5, and 2.5 μM and added to a pre-warmed 384-well plate, followed by pre-incubation at 37 °C. Subsequently, 14 μL of the tubulin-GTP mixture was added to each well containing the test compounds. Tubulin polymerization was monitored by measuring absorbance at 340 nm every minute for 60 min. […] Each assay was performed in triplicate.
Absorbance at 340 nm was determined every 1 min.

| SMILES | IC50 [1] | IC50 [2] | IC50 [3] | IC50 [4] | IC50 [5] | IC50 [6] | KD [7] | Kd [7] | IC50 [8] |
| --- | --- | --- | --- | --- | --- | --- | --- | --- | --- |
| COc1cc(-n2ccc3ccc(-c4ccccc4)cc32)cc(OC)c1OC [3a, 6-phenyl-1-(3,4,5-trimethoxyphenyl)-1H-indole] | 78.92 ± 0.57 µM | 36.6 ± 1.78 µM | > 100 µM | 10.1 ± 0.68 µM | 45.4 ± 1.11 µM | 1.16 ± 0.12 µM |  | 39 ± 2.6 µM |  |
| COc1cc(-n2ccc3ccc(-c4ccccc4C#N)cc32)cc(OC)c1OC [3l, 2-(1-(3,4,5-trimethoxyphenyl)-1H-indol-6-yl)benzonitrile] | > 100 µM | > 100 µM | > 100 µM | > 100 µM | > 100 µM | > 100 µM | low micromolar range | 26 ± 3.38 µM |  |
| COc1cc(-n2ccc3ccc(Cl)cc32)cc(OC)c1OC [H1] |  |  |  |  |  |  |  |  | 101 µM |
| COc1cc(-n2ccc3ccc(-c4ccc(SC)cc4)cc32)cc(OC)c1OC [3j, 6-(4-(methylthio)phenyl)-1-(3,4,5-trimethoxyphenyl)-1H-indole] | > 100 µM | > 100 µM | > 100 µM | > 100 µM | > 100 µM | > 100 µM | undetectable binding | > 200 µM |  |
| CCCCc1ccc(-c2ccc3ccn(-c4cc(OC)c(OC)c(OC)c4)c3c2)cc1 [3i, 6-(4-butylphenyl)-1-(3,4,5-trimethoxyphenyl)-1H-indole] | > 100 µM | > 100 µM | > 100 µM | > 100 µM | > 100 µM | > 100 µM | undetectable binding | > 200 µM |  |
| COc1cc(-n2ccc3ccc(-c4ccc(Oc5ccccc5)cc4)cc32)cc(OC)c1OC [3o, 6-(4-Phenoxyphenyl)-1-(3,4,5-trimethoxyphenyl)-1H-indole] | > 100 µM | > 100 µM | > 100 µM | > 100 µM | > 100 µM | > 100 µM |  | 31 ± 3.41 µM |  |
| COc1cc(-n2ccc3ccc(-c4ccc(C(C)C)cc4)cc32)cc(OC)c1OC [3k, 6-(4-isopropylphenyl)-1-(3,4,5-trimethoxyphenyl)-1H-indole] | > 100 µM | > 100 µM | > 100 µM | > 100 µM | > 100 µM | > 100 µM | undetectable binding | > 200 µM |  |
| COc1cc(-n2ccc3ccc(-c4ccc(C#N)cc4)cc32)cc(OC)c1OC [3m, 4-(1-(3,4,5-trimethoxyphenyl)-1H-indol-6-yl)benzonitrile] | > 100 µM | > 100 µM | > 100 µM | > 100 µM | > 100 µM | > 100 µM | undetectable binding | > 200 µM |  |
| CCc1ccc(-c2ccc3ccn(-c4cc(OC)c(OC)c(OC)c4)c3c2)cc1 [3e, 6-(4-ethylphenyl)-1-(3,4,5-trimethoxyphenyl)-1H-indole] | > 100 µM | > 100 µM | > 100 µM | > 100 µM | > 100 µM | > 100 µM |  | 110 ± 14.5 µM |  |
| COc1cc(-n2ccc3ccc(-c4nc5ccccc5s4)cc32)cc(OC)c1OC [3p, 2-(1-(3,4,5-trimethoxyphenyl)-1H-indol-6-yl)benzo[d]thiazole] | > 100 µM | > 100 µM | > 100 µM | > 100 µM | > 100 µM | > 100 µM | undetectable binding | > 200 µM |  |
| COc1cc(-n2ccc3ccc(-c4cccc(OC(F)(F)F)c4)cc32)cc(OC)c1OC [3h, 6-(3-(trifluoromethoxy)phenyl)-1-(3,4,5-trimethoxyphenyl)-1H-indole] | > 100 µM | > 100 µM | > 100 µM | > 100 µM | > 100 µM | > 100 µM | undetectable binding | > 200 µM |  |

More lines, now with the values ahead:

| IC50 [1] | IC50 [2] | IC50 [3] | IC50 [4] | IC50 [5] | IC50 [6] | KD [7] | Kd [7] | IC50 [8] | SMILES |
| --- | --- | --- | --- | --- | --- | --- | --- | --- | --- |
| 37.7 ± 0.89 µM | 92.4 ± 8.58 µM | 66.5 ± 6.21 µM | 9.15 ± 0.21 µM | 59.2 ± 5.86 µM | 53.2 ± 4.06 µM | low micromolar range | 23 ± 2.12 µM |  | COc1cc(-n2ccc3ccc(-c4cccc(C)c4)cc32)cc(OC)c1OC [3c, 6-(m-tolyl)-1-(3,4,5-trimethoxyphenyl)-1H-indole] |
| 41.4 ± 1.21 µM | 48 ± 2.56 µM | 65 ± 3.2 µM | 14.2 ± 0.51 µM | 68.9 ± 3.17 µM | 16.1 ± 0.38 µM |  | 220 ± 30.8 µM |  | COc1cc(-n2ccc3ccc(-c4ccc(C#N)cc4F)cc32)cc(OC)c1OC [3n, 3-fluoro-4-(1-(3,4,5-trimethoxyphenyl)-1H-indol-6-yl)benzonitrile] |
| 21.37 ± 0.12 µM | 87.4 ± 3.45 µM | 41.8 ± 1.11 µM | 17.4 ± 0.35 µM | 6.67 ± 0.29 µM | 21.1 ± 1.17 µM |  | 47 ± 5.62 µM |  | COc1cc(-n2ccc3ccc(-c4ccccc4C(C)C)cc32)cc(OC)c1OC [3f, 6-(2-isopropylphenyl)-1-(3,4,5-trimethoxyphenyl)-1H-indole] |
| 23.4 ± 0.44 µM | 60.2 ± 4.17 µM | 46.6 ± 3.65 µM | 34.2 ± 1.62 µM | 6.49 ± 0.4 µM | 24.84 ± 0.16 µM | low micromolar range | 24 ± 2.13 µM |  | CCc1ccccc1-c1ccc2ccn(-c3cc(OC)c(OC)c(OC)c3)c2c1 [3d, 6-(2-ethylphenyl)-1-(3,4,5-trimethoxyphenyl)-1H-indole] |
| 42.9 ± 3.13 µM | 41.2 ± 3.42 µM | 38.5 ± 2.25 µM | 3.33 ± 0.28 µM | 3.78 ± 0.14 µM | 27.5 ± 2.5 µM | low micromolar range | 29 ± 4.1 µM |  | COc1cc(-n2ccc3ccc(-c4cccc(C#N)c4)cc32)cc(OC)c1OC [3b, 3-(1-(3,4,5-trimethoxyphenyl)-1H-indol-6-yl)benzonitrile] |
